Data: PubChem BioAssay AID1963963 (Molecular Pharmacology Branch, DTP, NCI, 2024)

System: 958667-338-R-J2-PDC tumor spheroids viability
Experiment: Anticancer human tumor 958667-338-R-J2-PDC patient-derived colon adenocarcinoma cell line growth inhibition [PI3K]
Settings: spheroids with HUVEC and MSC; for IC50: curve of first compound; for viability, T/C: stronger effect = lower value
Procedure, shortened: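 Agents were dosed from a top concentration near clinical Cmax (otherwise 10 microM) in half-log decrements, alone or combined with PI3K inhibitors. The spheroids contain tumor cells plus endothelial (HUVEC) and MSC stroma; viability is measured.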
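Note: spheroids exposed to compounds for seven days before readout.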

## CCCS(=O)(=O)Nc1ccc(F)c(C(=O)c2c[nH]c3ncc(-c4ccc(Cl)cc4)cc23)c1F + CC(Nc1ccc2c(c1)OCCn1cc(N3C(=O)OCC3C(F)F)nc1-2)C(N)=O
Second compound 0.00316 µM
  IC50: 6100 nM
Second compound 0.01 µM
  IC50: 6010 nM
Second compound 0.0316 µM
  IC50: 5000 nM
Second compound 0.1 µM
  IC50: 4770 nM
Second compound 0.316 µM
  IC50: 4810 nM
Second compound 1 µM
  IC50: 4040 nM
Second compound 0.00316 µM, first compound 0.0316 µM
  viability, T/C: 99%
Second compound 0.00316 µM, first compound 0.1 µM
  viability, T/C: 105%
Second compound 0.00316 µM, first compound 0.316 µM
  viability, T/C: 106%
Second compound 0.00316 µM, first compound 1 µM
  viability, T/C: 106%
Second compound 0.00316 µM, first compound 3.16 µM
  viability, T/C: 112%
Second compound 0.00316 µM, first compound 10 µM
  viability, T/C: 8.08%
Second compound 0.01 µM, first compound 0.0316 µM
  viability, T/C: 105%
Second compound 0.01 µM, first compound 0.1 µM
  viability, T/C: 111%
Second compound 0.01 µM, first compound 0.316 µM
  viability, T/C: 83.7%
Second compound 0.01 µM, first compound 1 µM
  viability, T/C: 99.9%
Second compound 0.01 µM, first compound 3.16 µM
  viability, T/C: 130%
Second compound 0.01 µM, first compound 10 µM
  viability, T/C: 5.91%
Second compound 0.0316 µM, first compound 0.0316 µM
  viability, T/C: 104%
Second compound 0.0316 µM, first compound 0.1 µM
  viability, T/C: 109%
Second compound 0.0316 µM, first compound 0.316 µM
  viability, T/C: 104%
Second compound 0.0316 µM, first compound 1 µM
  viability, T/C: 106%
Second compound 0.0316 µM, first compound 3.16 µM
  viability, T/C: 76.7%
Second compound 0.0316 µM, first compound 10 µM
  viability, T/C: 9.56%
Second compound 0.1 µM, first compound 0.0316 µM
  viability, T/C: 78.3%
Second compound 0.1 µM, first compound 0.1 µM
  viability, T/C: 74.9%
Second compound 0.1 µM, first compound 0.316 µM
  viability, T/C: 72.3%
Second compound 0.1 µM, first compound 1 µM
  viability, T/C: 67.5%
Second compound 0.1 µM, first compound 3.16 µM
  viability, T/C: 81.1%
Second compound 0.1 µM, first compound 10 µM
  viability, T/C: 5.14%
Second compound 0.316 µM, first compound 0.0316 µM
  viability, T/C: 72.5%
Second compound 0.316 µM, first compound 0.1 µM
  viability, T/C: 65.5%
Second compound 0.316 µM, first compound 0.316 µM
  viability, T/C: 61.5%
Second compound 0.316 µM, first compound 1 µM
  viability, T/C: 79.1%
Second compound 0.316 µM, first compound 3.16 µM
  viability, T/C: 79.7%
Second compound 0.316 µM, first compound 10 µM
  viability, T/C: 12.3%
Second compound 1 µM, first compound 0.0316 µM
  viability, T/C: 57.8%
Second compound 1 µM, first compound 0.1 µM
  viability, T/C: 61%
Second compound 1 µM, first compound 0.316 µM
  viability, T/C: 58%
Second compound 1 µM, first compound 1 µM
  viability, T/C: 68.9%
Second compound 1 µM, first compound 3.16 µM
  viability, T/C: 60.5%
Second compound 1 µM, first compound 10 µM
  viability, T/C: 10.8%

## Cn1cnc2c(F)c(Nc3ccc(Br)cc3Cl)c(C(=O)NOCCO)cc21 + Cc1nc(NC(=O)N2CCCC2C(N)=O)sc1-c1ccnc(C(C)(C)C(F)(F)F)c1
Second compound 0.0316 µM
  IC50: 413 nM
Second compound 0.1 µM
  IC50: 328 nM
Second compound 0.316 µM
  IC50: 108 nM
Second compound 1 µM
  IC50: 58.5 nM
Second compound 3.16 µM
  IC50: 66 nM
Second compound 10 µM
  IC50: 14.2 nM
Second compound 0.0316 µM, first compound 0.00949 µM
  viability, T/C: 99.2%
Second compound 0.0316 µM, first compound 0.03 µM
  viability, T/C: 81.9%
Second compound 0.0316 µM, first compound 0.0949 µM
  viability, T/C: 73.6%
Second compound 0.0316 µM, first compound 0.3 µM
  viability, T/C: 56.9%
Second compound 0.0316 µM, first compound 0.949 µM
  viability, T/C: 35.1%
Second compound 0.0316 µM, first compound 3 µM
  viability, T/C: 15.8%
Second compound 0.1 µM, first compound 0.00949 µM
  viability, T/C: 96.1%
Second compound 0.1 µM, first compound 0.03 µM
  viability, T/C: 95.3%
Second compound 0.1 µM, first compound 0.0949 µM
  viability, T/C: 60.3%
Second compound 0.1 µM, first compound 0.3 µM
  viability, T/C: 52.3%
Second compound 0.1 µM, first compound 0.949 µM
  viability, T/C: 36.4%
Second compound 0.1 µM, first compound 3 µM
  viability, T/C: 12.7%
Second compound 0.316 µM, first compound 0.00949 µM
  viability, T/C: 94.8%
Second compound 0.316 µM, first compound 0.03 µM
  viability, T/C: 69%
Second compound 0.316 µM, first compound 0.0949 µM
  viability, T/C: 52.7%
Second compound 0.316 µM, first compound 0.3 µM
  viability, T/C: 35.5%
Second compound 0.316 µM, first compound 0.949 µM
  viability, T/C: 21.9%
Second compound 0.316 µM, first compound 3 µM
  viability, T/C: 11.9%
Second compound 1 µM, first compound 0.00949 µM
  viability, T/C: 80%
Second compound 1 µM, first compound 0.03 µM
  viability, T/C: 63%
Second compound 1 µM, first compound 0.0949 µM
  viability, T/C: 40.3%
Second compound 1 µM, first compound 0.3 µM
  viability, T/C: 24%
Second compound 1 µM, first compound 0.949 µM
  viability, T/C: 14.7%
Second compound 1 µM, first compound 3 µM
  viability, T/C: 7.55%
Second compound 3.16 µM, first compound 0.00949 µM
  viability, T/C: 50.3%
Second compound 3.16 µM, first compound 0.03 µM
  viability, T/C: 63.5%
Second compound 3.16 µM, first compound 0.0949 µM
  viability, T/C: 46.2%
Second compound 3.16 µM, first compound 0.3 µM
  viability, T/C: 16.4%
Second compound 3.16 µM, first compound 0.949 µM
  viability, T/C: 11%
Second compound 3.16 µM, first compound 3 µM
  viability, T/C: 3.01%
Second compound 10 µM, first compound 0.00949 µM
  viability, T/C: 56.8%
Second compound 10 µM, first compound 0.03 µM
  viability, T/C: 37.7%
Second compound 10 µM, first compound 0.0949 µM
  viability, T/C: 12.8%
Second compound 10 µM, first compound 0.3 µM
  viability, T/C: 9.46%
Second compound 10 µM, first compound 0.949 µM
  viability, T/C: 5.65%
Second compound 10 µM, first compound 3 µM
  viability, T/C: 1.13%
